Experiments:
Assay in all cases: biochemical
HCoV-229E 3CL^pro = molecular target: T1, HCoV-229E 3CL^pro (Human coronavirus 229E, UniProt P0C6X1)
T1 construct: […]; made in house; host or cells: E. coli BL21 (DE3)

SARS-CoV-2 3CL^pro = molecular target: T2, SARS-CoV-2 3CL^pro (Severe acute respiratory syndrome coronavirus 2, UniProt P0DTD1)
T2 construct: […]; made in house; host or cells: Escherichia coli

MERS-CoV 3CL^pro = MERS-CoV 3CL^pro (Middle East respiratory syndrome-related coronavirus, UniProt K9N7C7)
SARS-CoV 3CL^pro = SARS-CoV 3CL^pro (Severe acute respiratory syndrome coronavirus, UniProt P0C6X7)

T1 sequence (P0C6X1 2966-3267): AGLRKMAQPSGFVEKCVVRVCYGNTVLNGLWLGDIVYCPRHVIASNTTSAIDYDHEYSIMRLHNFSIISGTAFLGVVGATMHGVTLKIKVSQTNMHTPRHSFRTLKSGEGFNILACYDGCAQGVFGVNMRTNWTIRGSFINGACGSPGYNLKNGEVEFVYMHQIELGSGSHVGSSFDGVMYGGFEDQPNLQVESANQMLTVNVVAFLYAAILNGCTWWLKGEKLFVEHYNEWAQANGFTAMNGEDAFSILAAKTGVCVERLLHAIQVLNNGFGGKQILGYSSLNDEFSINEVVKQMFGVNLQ
Chain of MERS-CoV 3CL^pro (K9N7C7 3248-3553): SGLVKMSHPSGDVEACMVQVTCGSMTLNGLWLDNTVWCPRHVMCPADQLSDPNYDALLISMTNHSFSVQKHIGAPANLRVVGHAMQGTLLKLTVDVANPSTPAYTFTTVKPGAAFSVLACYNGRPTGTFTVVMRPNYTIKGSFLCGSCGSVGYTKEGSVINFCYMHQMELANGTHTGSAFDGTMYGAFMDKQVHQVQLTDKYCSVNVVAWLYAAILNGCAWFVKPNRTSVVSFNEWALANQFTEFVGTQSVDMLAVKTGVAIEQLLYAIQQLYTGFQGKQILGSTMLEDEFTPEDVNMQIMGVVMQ

Structure (SMILES)	IC50 (HCoV-229E 3CL^pro)	IC50 (SARS-CoV-2 3CL^pro)	IC50 (MERS-CoV 3CL^pro)	IC50 (SARS-CoV 3CL^pro)
C[C@H]1C[C@H](CN(NC(=O)[C@@H]2[C@@H]3[C@H](CN2C(=O)[C@@H](NC(=O)[C@@H]2CC2(F)F)C(C)(C)C)C3(C)C)C(=O)[C@H](F)Cl)C(=O)N1 [Example 31, (1S)-N-[(1S)-1-[(1R,2S,5S)-2-[[[(2R)-2-chloro-2-fluoro-acetyl]-[[(3R,5S)-5-methyl-2-oxo-pyrrolidin-3-yl]methyl]amino]carbamoyl]-6,6-dimethyl-3-azabicyclo[3.1.0]hexane-3-carbonyl]-2,2-dimethyl-propyl]-2,2-difluoro-cyclopropanecarboxamide]	116 nM	25 nM	555 nM	53 nM
C[C@@H]1C[C@H](CN(NC(=O)[C@@H]2[C@@H]3[C@H](CN2C(=O)[C@@H](NC(=O)[C@@H]2CC2(F)F)C(C)(C)C)C3(C)C)C(=O)[C@@H](F)Cl)C(=O)N1 [Example 32, (1S)-N-[(1S)-1-[(1R,2S,5S)-2-[[[(2S)-2-chloro-2-fluoro-acetyl]-[[(3R,5R)-5-methyl-2-oxo-pyrrolidin-3-yl]methyl]amino]carbamoyl]-6,6-dimethyl-3-azabicyclo[3.1.0]hexane-3-carbonyl]-2,2-dimethyl-propyl]-2,2-difluoro-cyclopropanecarboxamide]	70 nM	65 nM	200 nM	116 nM
C[C@H]1C[C@@H](CN(NC(=O)[C@@H]2[C@@H]3[C@H](CN2C(=O)[C@@H](NC(=O)[C@@H]2CC2(F)F)C(C)(C)C)C3(C)C)C(=O)[C@H](F)Cl)C(=O)N1 [Example 33, (1S)-N-[(1S)-1-[(1R,2S,5S)-2-[[[(2R)-2-chloro-2-fluoro-acetyl]-[[(3S,5S)-5-methyl-2-oxo-pyrrolidin-3-yl]methyl]amino]carbamoyl]-6,6-dimethyl-3-azabicyclo[3.1.0]hexane-3-carbonyl]-2,2-dimethyl-propyl]-2,2-difluoro-cyclopropanecarboxamide]	26 nM	6 nM	72 nM	13 nM
C[C@@H]1C[C@@H](CN(NC(=O)[C@@H]2[C@@H]3[C@H](CN2C(=O)[C@@H](NC(=O)[C@@H]2CC2(F)F)C(C)(C)C)C3(C)C)C(=O)[C@@H](F)Cl)C(=O)N1 [Example 34, (1S)-N-[(1S)-1-[(1R,2S,5S)-2-[[[(2S)-2-chloro-2-fluoro-acetyl]-[[(3S,5R)-5-methyl-2-oxo-pyrrolidin-3-yl]methyl]amino]carbamoyl]-6,6-dimethyl-3-azabicyclo[3.1.0]hexane-3-carbonyl]-2,2-dimethyl-propyl]-2,2-difluoro-cyclopropanecarboxamide]	37 nM	8 nM	80 nM	14 nM
CC(C)(C)[C@H](NC(=O)[C@@H]1CC1(F)F)C(=O)N1C[C@@H]2CCC[C@@H]2[C@H]1C(=O)NN(C[C@H]1C(=O)N[C@@H]2C[C@@H]21)C(=O)[C@H](F)Cl [Example 35, (1S)-N-[(1S)-1-[(3S,3aS,6aR)-3-[[[(2R)-2-chloro-2-fluoro-acetyl]-[[(1R,4S,5R)-3-oxo-2-azabicyclo[3.1.0]hexan-4-yl]methyl]amino]carbamoyl]-3,3a,4,5,6,6a-hexahydro-1H-cyclopenta[c]pyrrole-2-carbonyl]-2,2-dimethyl-propyl]-2,2-difluoro-cyclopropanecarboxamide]	41 nM	10 nM	117 nM	7 nM
CC(C)(C)[C@H](NC(=O)[C@@H]1CC1(F)F)C(=O)N1C[C@@H]2CCC[C@@H]2[C@H]1C(=O)NN(C[C@H]1C(=O)N[C@H]2C[C@H]21)C(=O)[C@H](F)Cl [Example 36, (1S)-N-[(1S)-1-[(3S,3aS,6aR)-3-[[[(2R)-2-chloro-2-fluoro-acetyl]-[[(1S,4S,5S)-3-oxo-2-azabicyclo[3.1.0]hexan-4-yl]methyl]amino]carbamoyl]-3,3a,4,5,6,6a-hexahydro-1H-cyclopenta[c]pyrrole-2-carbonyl]-2,2-dimethyl-propyl]-2,2-difluoro-cyclopropanecarboxamide]	54 nM	13 nM	174 nM	14 nM
CC(C)(C)[C@H](NC(=O)[C@@H]1CC1(F)F)C(=O)N1C[C@@H]2CCC[C@@H]2[C@H]1C(=O)NN(C[C@H]1C(=O)N[C@@H]2C[C@@H]21)C(=O)[C@@H](F)Cl [Example 37, (1S)-N-[(1S)-1-[(3S,3aS,6aR)-3-[[[(2S)-2-chloro-2-fluoro-acetyl]-[[(1R,4S,5R)-3-oxo-2-azabicyclo[3.1.0]hexan-4-yl]methyl]amino]carbamoyl]-3,3a,4,5,6,6a-hexahydro-1H-cyclopenta[c]pyrrole-2-carbonyl]-2,2-dimethyl-propyl]-2,2-difluoro-cyclopropanecarboxamide]	191 nM	17 nM	320 nM	21 nM
CC(C)(C)[C@H](NC(=O)[C@@H]1CC1(F)F)C(=O)N1C[C@@H]2CCC[C@@H]2[C@H]1C(=O)NN(C[C@@H]1C(=O)N[C@@H]2C[C@H]12)C(=O)[C@H](F)Cl [Example 38, (1S)-N-[(1S)-1-[(3S,3aS,6aR)-3-[[[(2R)-2-chloro-2-fluoro-acetyl]-[[(1R,4R,5R)-3-oxo-2-azabicyclo[3.1.0]hexan-4-yl]methyl]amino]carbamoyl]-3,3a,4,5,6,6a-hexahydro-1H-cyclopenta[c]pyrrole-2-carbonyl]-2,2-dimethyl-propyl]-2,2-difluoro-cyclopropanecarboxamide]	134 nM	27 nM	398 nM	54 nM
CC(C)(C)[C@H](NC(=O)[C@@H]1CC1(F)F)C(=O)N1C[C@@H]2CCC[C@@H]2[C@H]1C(=O)NN(C[C@H]1C(=O)N[C@H]2C[C@H]21)C(=O)[C@@H](F)Cl [Example 39, (1S)-N-[(1S)-1-[(3S,3aS,6aR)-3-[[[(2S)-2-chloro-2-fluoro-acetyl]-[[(1S,4S,5S)-3-oxo-2-azabicyclo[3.1.0]hexan-4-yl]methyl]amino]carbamoyl]-3,3a,4,5,6,6a-hexahydro-1H-cyclopenta[c]pyrrole-2-carbonyl]-2,2-dimethyl-propyl]-2,2-difluoro-cyclopropanecarboxamide]	207 nM	29 nM	289 nM	34 nM
CC(C)(C)[C@H](NC(=O)[C@@H]1CC1(F)F)C(=O)N1C[C@@H]2CCC[C@@H]2[C@H]1C(=O)NN(C[C@@H]1C(=O)N[C@@H]2C[C@H]12)C(=O)[C@@H](F)Cl [Example 40, (1S)-N-[(1S)-1-[(3S,3aS,6aR)-3-[[[(2S)-2-chloro-2-fluoro-acetyl]-[[(1R,4R,5R)-3-oxo-2-azabicyclo[3.1.0]hexan-4-yl]methyl]amino]carbamoyl]-3,3a,4,5,6,6a-hexahydro-1H-cyclopenta[c]pyrrole-2-carbonyl]-2,2-dimethyl-propyl]-2,2-difluoro-cyclopropanecarboxamide]	257 nM	64 nM	538 nM	122 nM

Reference: patent US20260125421A1, “ANTIVIRAL COMPOUNDS” (Hoffmann-La Roche Inc., priority 2022, published 2026)
